Laboratory results taken from US8202856B2 (Merck Serono SA, priority 2007, dated 2012).
Where a name gives a salt, the structure may show the parent alone.

Columns and labels:
S1P1 receptor = S1P1 receptor (Homo sapiens, UniProt P21453); assay: 35S-GTPγS binding, membranes from CHO cells expressing S1P1; assay type: biochemical; settings: CHO cell membranes expressing S1P1
How it was run: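 Membranes (1–10 μg) from CHO cells expressing the receptor were incubated with compound in 20 mM HEPES pH 7.4, 10 mM MgCl2, 140 mM NaCl, 1.7 μM GDP, saponin and 0.2% BSA. [35S]GTPγS (added at 1.5 nM) was then bound for 60 min at 30 °C. Membrane-bound radioactivity, averaged over triplicates, is expressed relative to S1P activation (n=2).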

S1P3 receptor = S1P3 receptor (Homo sapiens, UniProt Q99500); assay: 35S-GTPγS binding, membranes from CHO cells expressing S1P3; assay type: biochemical; settings: CHO cell membranes expressing S1P3
Sequence of S1P3 receptor (Q99500 whole entry): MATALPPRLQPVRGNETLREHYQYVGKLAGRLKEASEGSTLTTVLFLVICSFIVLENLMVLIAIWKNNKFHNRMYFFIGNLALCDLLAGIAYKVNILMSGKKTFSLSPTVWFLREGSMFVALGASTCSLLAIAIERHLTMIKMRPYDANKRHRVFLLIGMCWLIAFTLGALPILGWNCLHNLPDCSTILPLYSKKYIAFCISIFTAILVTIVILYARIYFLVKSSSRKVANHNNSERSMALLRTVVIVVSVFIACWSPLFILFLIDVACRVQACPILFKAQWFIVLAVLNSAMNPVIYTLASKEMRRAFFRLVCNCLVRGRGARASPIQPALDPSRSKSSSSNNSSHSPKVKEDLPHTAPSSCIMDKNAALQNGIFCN
Experimental: Receptor binding assay: Membranes were prepared from CHO cells expressing S1P1 or S1P3 for use in ligand and 35S-GTPTS binding studies. Cells were suspended in 50 mM TRIS, pH 7.4, 2 mM EDTA, 250 mM Sucrose (buffer A) and 1× Complete protease inhibitor cocktail (Roche), and disrupted at 4° C. by nitrogen decompression using a cell disruption bomb (Parr Instrument). Following centrifugation at 1000 RPM for 10 min at 4° C., the supernatant was suspended in buffer A and centrifuged again at 19000 RPM for 60 min at 4° C. The pellet was then suspended in 10 mM HEPES, pH 7.4, 1 mM EDTA, 250 mM Sucrose (Buffer B), and 1× Complete EDTA-free protease inhibitor cocktail and homogenized using a potter. Membranes were flash frozen in liquid nitrogen and stored at −80° C. [33P]sphingosine 1-phosphate (3000 Ci/mmol; American Radiolabeled Chemicals, Inc.) was added to test compounds in DMSO. Membranes and WGA SPA beads (GE Healthcare) were added to give a final volume of 100 μl in 96-well plates with assay concentrations of […] [33P]sphingosine 1-phosphate (respectively for S1P1 or S1P3), 50 mM HEPES, pH 7.5, 5 mM MgCl2, 100 mM NaCl, 0.4% fatty acid-free BSA, 1-5 μg/well of proteins and 100 μg/well of WGA SPA beads. Binding was performed for 60 min at room temperature on a shaker and bound radioactivity was measured on a PerkinElmer 1450 MicroBeta counter. Specific binding was calculated by subtracting remaining radioactivity in the presence of 1000-fold excess of unlabeled S1P. Binding data were analyzed using the GraphPad Prism program.
Measurements of ^35S-GTPγS Binding: Membranes (1 to 10 μg protein) prepared as described above, were incubated in 96-well Scintiplates (PerkinElmer) with test compounds diluted in DMSO, in 180 μl of 20 mM HEPES, pH 7.4, 10 mM MgCl2, 2 μg/well Saponin, 0.2% fatty acid free BSA (Assay buffer), 140 mM NaCl and 1.7 μM GDP. The assay was initiated with the addition of 20 μl of 1.5 nM [35S]-GTPγS (1100 Ci/mmol; GE Healthcare) in assay buffer. After 60 min incubation at 30° C. on a shaker, plates were centrifuged for 10 min at 2000 RPM. Supernatant was discarded and membrane bound radioactivity was measured on a PerkinElmer 1450 MicroBeta counter. Triplicate samples were averaged and expressed as response relative to S1P activation in absence of compound (n=2).

Sequence of S1P1 receptor (P21453 whole entry): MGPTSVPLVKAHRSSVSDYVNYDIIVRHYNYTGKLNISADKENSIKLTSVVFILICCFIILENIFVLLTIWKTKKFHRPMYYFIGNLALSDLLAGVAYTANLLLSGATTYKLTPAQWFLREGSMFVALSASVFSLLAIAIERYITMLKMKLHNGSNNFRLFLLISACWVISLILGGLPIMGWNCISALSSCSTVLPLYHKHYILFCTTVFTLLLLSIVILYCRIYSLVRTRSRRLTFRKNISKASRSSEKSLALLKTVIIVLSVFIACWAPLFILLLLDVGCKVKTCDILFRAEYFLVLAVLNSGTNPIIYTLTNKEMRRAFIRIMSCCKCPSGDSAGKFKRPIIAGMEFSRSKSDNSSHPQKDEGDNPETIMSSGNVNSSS

Row | EC50 (S1P1 receptor) | EC50 (S1P3 receptor) | Structure (SMILES)
1 | 33 nM | > 20000 nM | CS(=O)(=O)c1cccc(-c2noc(-c3nnn(-c4ccccc4F)c3-c3ccncc3)n2)c1 [Example 52, 4-(1-(2-fluorophenyl)-4-{3-[3-(methylsulfonyl)phenyl]-1,2,4-oxadiazol-5-yl}-1H-1,2,3-triazol-5-yl)pyridine]
2 | 20 nM | 1200 nM | Fc1ccccc1-c1noc(-c2nnn(-c3ccccc3F)c2-c2ccncc2)n1 [Example 32, 4-{1-(2-Fluorophenyl)-4-[3-(2-fluorophenyl)-1,2,4-oxadiazole-5-yl]-1H-1,2,3-triazole-5-yl}pyridine]
3 | 38 nM | 2270 nM | NCc1ccc(-c2noc(-c3nnn(-c4ccccc4F)c3-c3ccncc3)n2)cc1 [Example 80, 1-(4-{5-[1-(2-fluorophenyl)-5-pyridin-4-yl-1H-1,2,3-triazol-4-yl]-1,2,4-oxadiazol-3-yl}phenyl)methanamine hydrochloride]
4 | 144 nM | 4900 nM | CCCCc1c(-c2nc(-c3ccccc3)no2)nnn1-c1ccccc1F [Example 17, 5-[5-Butyl-1-(2-fluorophenyl)-1H-1,2,3-triazole-4-yl]-3-phenyl-1,2,4-oxadiazole]
5 | 272 nM | > 20000 nM | Fc1ccccc1-c1noc(-c2nnn(-c3ccccc3F)c2-c2cccnc2)n1 [Example 25, 3-{1-(2-Fluorophenyl)-4-[3-(2-fluorophenyl)-1,2,4-oxadiazole-5-yl]-1H-1,2,3-triazole-5-yl}pyridine]
6 | 41 nM | > 30000 nM | Fc1ccccc1-n1nnc(-c2nc(-c3cccc(C(F)(F)F)c3)no2)c1-c1ccccc1 [Example 21, 5-[1-(2-Fluorophenyl)-5-phenyl-1H-1,2,3-triazole-4-yl]-3-[3-(trifluoromethyl)phenyl]-1,2,4-oxadiazole]
7 | 1100 nM | > 30000 nM | Cc1c(-c2nc(-c3ccccc3)no2)nnn1-c1ccccc1F [Example 34, 5-[1-(2-fluorophenyl)-5-methyl-1H-1,2,3-triazol-4-yl]-3-phenyl-1,2,4-oxadiazole]
8 | 29 nM | 486 nM | Fc1ccccc1-c1noc(-c2nnn(-c3ccccc3F)c2-c2ccccc2)n1 [Example 13, 3-(2-Fluorophenyl)-5-[1-(2-fluorophenyl)-5-phenyl-1H-1,2,3-triazole-4-yl]-1,2,4-oxadiazole]
9 | 188 nM | 2890 nM | Fc1ccccc1-c1noc(-c2nnn(-c3ccccc3F)c2-c2ccccn2)n1 [Example 27, 2-{1-(2-Fluorophenyl)-4-[3-(2-fluorophenyl)-1,2,4-oxadiazole-5-yl]-1H-1,2,3-triazole-5-yl}pyridine]
10 | 7 nM | 14000 nM | Fc1ccc(F)c(-c2noc(-c3nnn(-c4ccccc4F)c3-c3ccccc3)n2)c1 [Example 12, 3-(2,5-Difluorophenyl)-5-[1-(2-fluorophenyl)-5-phenyl-1H-1,2,3-triazole-4-yl]-1,2,4-oxadiazole]
11 | 84 nM | 8550 nM | COC(=O)c1cccc(-c2noc(-c3nnn(-c4ccccc4F)c3-c3ccccc3)n2)c1 [Example 20, Methyl 3-{5-[1-(2-fluorophenyl)-5-phenyl-1H-1,2,3-triazole-4-yl]-1,2,4-oxadiazole-3-yl}benzoate]
12 | 13 nM | > 20000 nM | Cc1ccccc1-c1noc(-c2nnn(-c3ccccc3F)c2-c2ccncc2)n1 [Example 121, 4-{1-(2-fluorophenyl)-4-[3-(2-methylphenyl)-1,2,4-oxadiazol-5-yl]-1H-1,2,3-triazol-5-yl}pyridine]
13 | 38 nM | 399 nM | Fc1ccccc1-n1nnc(-c2nc(-c3ccccc3)no2)c1-c1ccccc1 [Example 14, 5-[1-(2-Fluorophenyl)-5-phenyl-1H-1,2,3-triazole-4-yl]-3-phenyl-1,2,4-oxadiazole]
14 | 140 nM | 6860 nM | COc1ccccc1-c1noc(-c2nnn(-c3ccccc3F)c2-c2ccccc2)n1 [Example 22, 5-[1-(2-Fluorophenyl)-5-phenyl-1H-1,2,3-triazole-4-yl]-3-(2-methoxyphenyl)-1,2,4-oxadiazole]
15 | 10 nM | 4560 nM | CNCc1ccc(-c2noc(-c3nnn(-c4ccccc4F)c3-c3ccncc3)n2)cc1 [Example 129, 1-(4-{5-[1-(2-fluorophenyl)-5-pyridin-4-yl-1H-1,2,3-triazol-4-yl]-1,2,4-oxadiazol-3-yl}phenyl)-N-methylmethanamine]

The remaining lines, values behind:

Row | Structure (SMILES) | EC50 (S1P1 receptor) | EC50 (S1P3 receptor)
16 | O=C(O)C1CN(Cc2ccc(-c3noc(-c4nnn(-c5ccccc5F)c4-c4ccncc4)n3)cc2)C1 [Example 113, 1-(4-{5-[1-(2-fluorophenyl)-5-pyridin-4-yl-1H-1,2,3-triazol-4-yl]-1,2,4-oxadiazol-3-yl}benzyl)azetidine-3-carboxylic acid] | 2 nM | 1370 nM
17 | Fc1ccc(F)c(-c2noc(-c3nnn(-c4ccccc4F)c3-c3ccncc3)n2)c1 [Example 31, 4-[4-[3-(2,5-Difluorophenyl)-1,2,4-oxadiazole-5-yl]-1-(2-fluorophenyl)-1H-1,2,3-triazole-5-yl]pyridine] | 7 nM | 1780 nM
18 | Fc1ccc(F)c(-c2noc(-c3nnn(-c4ccccc4F)c3-c3cccnc3)n2)c1 [Example 26, 3-[4-[3-(2,5-Difluorophenyl)-1,2,4-oxadiazole-5-yl]-1-(2-fluorophenyl)-1H-1,2,3-triazole-5-yl]pyridine] | 95 nM | > 20000 nM
19 | COCc1c(-c2nc(-c3ccc4[nH]ncc4c3)no2)nnn1-c1ccccc1F [Example 87, 5-{5-[1-(2-fluorophenyl)-5-(methoxymethyl)-1H-1,2,3-triazol-4-yl]-1,2,4-oxadiazol-3-yl}-1H-indazole] | 98 nM | > 20000 nM
20 | Fc1ccc(F)c(-c2noc(-c3nnn(-c4ccccc4F)c3CN3CCCC3)n2)c1 [Example 92, 3-(2,5-difluorophenyl)-5-[1-(2-fluorophenyl)-5-(pyrrolidin-1-ylmethyl)-1H-1,2,3-triazol-4-yl]-1,2,4-oxadiazole] | 92 nM | > 20000 nM
21 | Fc1ccc(F)c(-c2noc(-c3nnn(-c4ccccc4F)c3CN3CCOCC3)n2)c1 [Example 39, 4-{[4-[3-(2,5-difluorophenyl)-1,2,4-oxadiazol-5-yl]-1-(2-fluorophenyl)-1H-1,2,3-triazol-5-yl]methyl}morpholine] | 92 nM | 741 nM
22 | Fc1ccc(F)c(-c2noc(-c3nnn(-c4ccccc4F)c3C3CCCC3)n2)c1 [Example 77, 5-[5-cyclopentyl-1-(2-fluorophenyl)-1H-1,2,3-triazol-4-yl]-3-(2,5-difluorophenyl)-1,2,4-oxadiazole] | 206 nM | 33 nM
23 | CCc1c(-c2nc(-c3ccccc3F)no2)nnn1-c1ccccc1F [Example 6, 5-[5-Ethyl-1-(2-fluorophenyl)-1H-1,2,3-triazole-4-yl]-3-(2-fluorophenyl)-1,2,4-oxadiazole] | 561 nM | > 30000 nM
24 | Fc1ccccc1-n1nnc(-c2nc(-c3cccc(Cn4cncn4)c3)no2)c1-c1ccncc1 [Example 61, 4-(1-(2-fluorophenyl)-4-{3-[3-(1H-1,2,4-triazol-1-ylmethyl)phenyl]-1,2,4-oxadiazol-5-yl}-1H-1,2,3-triazol-5-yl)pyridine] | 182 nM | > 20000 nM
25 | COCc1c(-c2nc(-c3ccccc3F)no2)nnn1-c1ccccc1F | 211 nM | > 30000 nM
26 | O=C(O)C1CCN(Cc2ccc(-c3noc(-c4nnn(-c5ccccc5F)c4-c4ccncc4)n3)cc2)CC1 [Example 128, 1-(4-{5-[1-(2-fluorophenyl)-5-pyridin-4-yl-1H-1,2,3-triazol-4-yl]-1,2,4-oxadiazol-3-yl}benzyl)piperidine-4-carboxylic acid] | 8 nM | 2530 nM
27 | COCCNCc1ccc(-c2noc(-c3nnn(-c4ccccc4F)c3-c3ccncc3)n2)cc1 [Example 114, N-(4-{5-[1-(2-fluorophenyl)-5-pyridin-4-yl-1H-1,2,3-triazol-4-yl]-1,2,4-oxadiazol-3-yl}benzyl)-2-methoxyethanamine] | 50 nM | 6680 nM
